Literature values in US5922313A, “Antibacterial composition” (Bio-Safe Enterprises, Inc., priority 1998, dated 1999).

Substance: nonylphenol thoxylate
- virus killing (hepatitis B): effective in killing hepatitis B and HIV viruses
- virus killing (HIV): effective in killing hepatitis B and HIV viruses
